# From patent publication US20240024273A1, “TOPICAL ADMINISTRATION OF 2-(DIETHYLAMINO)ETHYL 2-(4-ISOBUTYLPHENYL)PROPRIONATE FOR TREATMENT OF DISEASES” (TECHFIELDS PHARMA CO., LTD., priority 2020, published 2024)
# System: Mild to Moderate Osteoarthritis of the Knee
# Assay: Phase 2 study: WOMAC difficulty performing daily activities subscale score
# Type: in vivo, human
# Conditions: for Change of WOMAC Difficulty performing daily activities score from baseline (±SEM) / Percentage of improvement from baseline, WOMAC Difficulty performing daily activities score: all patients taken as active; for WOMAC Difficulty Performing Daily Activities Subscale Score, Avg.: Avg. of all patients; for WOMAC Difficulty Performing Daily Activities Subscale Score, Avg. / WOMAC Difficulty Performing Daily Activities Subscale Score: blinded; for WOMAC Difficulty Performing Daily Activities Subscale Score: individual patient
# Source text: This is a Phase 2, multicenter, randomized, double blind (within dose), placebo controlled, parallel group, proof of concept, and dose range finding study to evaluate the efficacy, safety, and PK of 2-(diethylamino)ethyl 2-(4-isobutylphenyl)propionate hydrochloride spray in adult subjects with clinically symptomatic mild to moderate OA of the knee. For subjects with bilateral knee pain, both knees will be treated, but the most symptomatic knee (i.e., the most painful knee as measured by the Western Ontario and McMaster University Osteoarthritis Index [WOMAC® 3.1] pain subscale score at Screening) will be designated as the target knee for efficacy analyses. For subjects with unilateral knee pain, only the symptomatic (target) knee will be treated.
# After a Screening Period of up to 3 weeks and radiographic evaluation of the target knee joint space, a subject will be randomly assigned to 1 of 3 treatment groups in a 1:1:1 ratio with a 2:1 ratio of active:placebo within each treatment group (ie, 2 subjects to active treatment and 1 subject to placebo): • Group A: 8.75 mg 2-(diethylamino)ethyl 2-(4-isobutylphenyl)propionate/knee (2 sprays/knee, one spray to the medial surface and one spray to the lateral surface of the knee), twice daily (BID, approximately every 12 hours; n=50) or placebo (2 sprays/knee), BID (approximately every 12 hours; n=25) for a total of 4 sprays per knee per day; • Group B: 17.5 mg 2-(diethylamino)ethyl 2-(4-isobutylphenyl)propionate/knee (4 sprays/knee, one spray to the medial surface and one spray to the lateral surface of the knee, and one spray to front and one spray to the back of the knee), BID (approximately every 12 hours; n=50) or placebo (4 sprays/knee), BID (approximately every 12 hours; n=25) for a total of 8 sprays per knee per day; • Group C: 35 mg 2-(diethylamino)ethyl 2-(4-isobutylphenyl)propionate/knee (8 sprays/knee, each spray is to be applied to a different non-overlapping area around the knee, and the areas are to be uniformly distributed around the knee), BID (approximately every 12 hours; n=50) or placebo (8 sprays/knee), BID (approximately every 12 hours; n=25) for a total of 16 sprays per knee per day.
# The VAS version of the WOMAC will be used for the Primary and Secondary Efficacy Endpoints. Efficacy endpoints will be assessed at Screening and Baseline (Day 1) and at the Week 2, Week 4, Week 8, and Week 12/EOS visits.
# 3.9.2. Secondary Efficacy Endpoints: • 1. Change from Baseline in the WOMAC (VAS) pain subscale score for the target knee at 2, 4, and 8 weeks of treatment; • 2. Change from Baseline in the WOMAC (VAS) stiffness subscale scores for the target knee and WOMAC (VAS) functional ability subscale scores at 2, 4, 8, and 12 weeks of treatment; • 3. Change from Baseline in the overall WOMAC (VAS) score at 2, 4, 8, and 12 weeks of treatment.
# The Secondary Efficacy Endpoints, change from Baseline in the WOMAC subscale scores for pain, stiffness, and functional ability, and overall WOMAC score at 2, 4, 8, and 12 weeks of treatment, will be analyzed using the same methods as for the Primary Efficacy Endpoint.
# To determine this, we assumed that all patients received 2-(diethylamino)ethyl 2-(4-isobutylphenyl)propionate, active drug treatment (i.e. all patients who received 2-(diethylamino)ethyl 2-(4-isobutylphenyl)propionate or placebo treatment for 12 weeks or mixed up treatment during the 12-week treatment, as 2-(diethylamino)ethyl 2-(4-isobutylphenyl)propionate-treated). Based on this assumption, that is, to treat this trial as an open-label study and that all patients received active treatment, we conducted efficacy analysis using top-line efficacy datasets prepared by CRO and the re-analysis results are presented in the following tables (Tables 29-47). […] (William G. Bensen, Justus J. Fiechtner, James 1. McMillen, et. al. Treatment of Osteoarthritis with Celecoxib. Mayo Clin Proc, November 1999. Vol 74, 1095-1105.)
# [1] = 35 mg/knee (BID), Week 8 (day 56)
# [2] = 35 mg/knee (BID), Week 12 (day 84)
# [3] = Middle Dose (4 spray/knee, 17.5 mg/knee) Cohort, Day 1
# [4] = Middle Dose (4 spray/knee, 17.5 mg/knee) Cohort, Week 4
compound,measurement,setting,value
CCN(CC)CCOC(=O)C(C)c1ccc(CC(C)C)cc1 (stereo not shown) [2-(diethylamino)ethyl 2-(4-isobutylphenyl)propionate],"Percentage of improvement from baseline, WOMAC Difficulty performing daily activities score, adjusted by […] of the Testing Drug Amount",[1],−55.1%
same,Change of WOMAC Difficulty performing daily activities score from baseline (±SEM),[1],−18.4(±2.6) mm
same,"Percentage of improvement from baseline, WOMAC Difficulty performing daily activities score",[1],−32.1%
same,"Change of WOMAC Difficulty performing daily activities score from baseline (±SEM), adjusted by […] of the Testing Drug Amount",[2],−35.8(±4.8) mm
same,"Percentage of improvement from baseline, WOMAC Difficulty performing daily activities score, adjusted by […] of the Testing Drug Amount",[2],−62.4%
same,Change of WOMAC Difficulty performing daily activities score from baseline (±SEM),[2],−20.9(±2.8) mm
same,"Percentage of improvement from baseline, WOMAC Difficulty performing daily activities score",[2],−36.4%
same,reduction of difficulty performing daily activities WOMAC from baseline to week 12,5 patients on second batch active drug kits,65.1-100%
same,"WOMAC Difficulty Performing Daily Activities Subscale Score, Avg.","35 mg/knee (8 spray/knee), Day 1",57.4
same,"WOMAC Difficulty Performing Daily Activities Subscale Score, Avg.","35 mg/knee (8 spray/knee), Follow-up",37.0
same,"WOMAC Difficulty Performing Daily Activities Subscale Score, Avg.","35 mg/knee (8 spray/knee), Week 2",48.0
same,"WOMAC Difficulty Performing Daily Activities Subscale Score, Avg.","35 mg/knee (8 spray/knee), Week 4",44.0
same,"WOMAC Difficulty Performing Daily Activities Subscale Score, Avg.","35 mg/knee (8 spray/knee), Week 8",39.0
same,"WOMAC Difficulty Performing Daily Activities Subscale Score, Avg.","35 mg/knee (8 spray/knee), Week 12",36.5
same,"WOMAC Difficulty Performing Daily Activities Subscale Score, Avg.",[3],63.4
same,"WOMAC Difficulty Performing Daily Activities Subscale Score, Avg.","Middle Dose (4 spray/knee, 17.5 mg/knee) Cohort, Follow-up",40.3
same,"WOMAC Difficulty Performing Daily Activities Subscale Score, Avg.","Middle Dose (4 spray/knee, 17.5 mg/knee) Cohort, Week 2",48.1
same,"WOMAC Difficulty Performing Daily Activities Subscale Score, Avg.",[4],42.3
same,"WOMAC Difficulty Performing Daily Activities Subscale Score, Avg.","Middle Dose (4 spray/knee, 17.5 mg/knee) Cohort, Week 8",39.3
same,"WOMAC Difficulty Performing Daily Activities Subscale Score, Avg.","Middle Dose (4 spray/knee, 17.5 mg/knee) Cohort, Week 12",36.5
same,"WOMAC Difficulty Performing Daily Activities Subscale, WOMAC VAS Score","Patient 1056, second batch active drug kits, Day 1",39.6 mm
same,"WOMAC Difficulty Performing Daily Activities Subscale, WOMAC VAS Score","Patient 1056, second batch active drug kits, Follow Up",11.6 mm
same,"WOMAC Difficulty Performing Daily Activities Subscale, WOMAC VAS Score","Patient 1056, second batch active drug kits, Week 2",27.1 mm
same,"WOMAC Difficulty Performing Daily Activities Subscale, WOMAC VAS Score","Patient 1056, second batch active drug kits, Week 4",24.4 mm
same,"WOMAC Difficulty Performing Daily Activities Subscale, WOMAC VAS Score","Patient 1056, second batch active drug kits, Week 8",25.2 mm
same,"WOMAC Difficulty Performing Daily Activities Subscale, WOMAC VAS Score","Patient 1056, second batch active drug kits, Week 12",18.1 mm
same,"WOMAC Difficulty Performing Daily Activities Subscale, WOMAC VAS Score","Patient 1064, second batch active drug kits, Day 1",33.6 mm
same,"WOMAC Difficulty Performing Daily Activities Subscale, WOMAC VAS Score","Patient 1064, second batch active drug kits, Follow Up",0.4 mm
same,"WOMAC Difficulty Performing Daily Activities Subscale, WOMAC VAS Score","Patient 1064, second batch active drug kits, Week 2",24.4 mm
same,"WOMAC Difficulty Performing Daily Activities Subscale, WOMAC VAS Score","Patient 1064, second batch active drug kits, Week 4",1.1 mm
same,"WOMAC Difficulty Performing Daily Activities Subscale, WOMAC VAS Score","Patient 1064, second batch active drug kits, Week 8",0.5 mm
same,"WOMAC Difficulty Performing Daily Activities Subscale, WOMAC VAS Score","Patient 1064, second batch active drug kits, Week 12",0.6 mm
same,"WOMAC Difficulty Performing Daily Activities Subscale, WOMAC VAS Score","Patient 1535, second batch active drug kits, Day 1",51.6 mm
same,"WOMAC Difficulty Performing Daily Activities Subscale, WOMAC VAS Score","Patient 1535, second batch active drug kits, Follow Up",0.2 mm
same,"WOMAC Difficulty Performing Daily Activities Subscale, WOMAC VAS Score","Patient 1535, second batch active drug kits, Week 2",3.3 mm
same,"WOMAC Difficulty Performing Daily Activities Subscale, WOMAC VAS Score","Patient 1535, second batch active drug kits, Week 4",2.8 mm
same,"WOMAC Difficulty Performing Daily Activities Subscale, WOMAC VAS Score","Patient 1535, second batch active drug kits, Week 8",3.5 mm
same,"WOMAC Difficulty Performing Daily Activities Subscale, WOMAC VAS Score","Patient 1535, second batch active drug kits, Week 12",0.2 mm
same,"WOMAC Difficulty Performing Daily Activities Subscale, WOMAC VAS Score","Patient 1539, second batch active drug kits, Day 1",73.0 mm
same,"WOMAC Difficulty Performing Daily Activities Subscale, WOMAC VAS Score","Patient 1539, second batch active drug kits, Follow Up",4.4 mm
same,"WOMAC Difficulty Performing Daily Activities Subscale, WOMAC VAS Score","Patient 1539, second batch active drug kits, Week 2",47.8 mm
same,"WOMAC Difficulty Performing Daily Activities Subscale, WOMAC VAS Score","Patient 1539, second batch active drug kits, Week 4",43 mm
same,"WOMAC Difficulty Performing Daily Activities Subscale, WOMAC VAS Score","Patient 1539, second batch active drug kits, Week 8",5.5 mm
same,"WOMAC Difficulty Performing Daily Activities Subscale, WOMAC VAS Score","Patient 1539, second batch active drug kits, Week 12",8.4 mm
same,"WOMAC Difficulty Performing Daily Activities Subscale, WOMAC VAS Score","Patient 9032, second batch active drug kits, Day 1",16.4 mm
same,"WOMAC Difficulty Performing Daily Activities Subscale, WOMAC VAS Score","Patient 9032, second batch active drug kits, Follow Up",2.8 mm
same,"WOMAC Difficulty Performing Daily Activities Subscale, WOMAC VAS Score","Patient 9032, second batch active drug kits, Week 2",6.0 mm
same,"WOMAC Difficulty Performing Daily Activities Subscale, WOMAC VAS Score","Patient 9032, second batch active drug kits, Week 4",7.1 mm
same,"WOMAC Difficulty Performing Daily Activities Subscale, WOMAC VAS Score","Patient 9032, second batch active drug kits, Week 8",3.4 mm
same,"WOMAC Difficulty Performing Daily Activities Subscale, WOMAC VAS Score","Patient 9032, second batch active drug kits, Week 12",2.5 mm
same,WOMAC Difficulty Performing Daily Activities Subscale Score,[3],64.5
same,WOMAC Difficulty Performing Daily Activities Subscale Score,[4],66.8
